Reference: US20250179436A1, “HUMAN FATTY-LIVER MODEL CELLS” (PhoenixBio Co., Ltd., priority 2019, published 2025)

Experiments:
PXB-cells [1] = assay: Fat droplets in PXB-cells cultured in medium with or without DMSO (photomicrograph); type: cell-based, human; settings: 2% DMSO, PXB-cells cultured 5 days
Experimental: The following day of seeding, medium A was removed. Instead, 500 μL of medium B (DMSO (+)) or medium C (DMSO (−)) was added. The plate was gently placed in an incubator (37° C., 5% CO2) and the cells were cultured for 5 days. After completion of culture, an image of the cells was taken by a photomicrographic camera. Then, the culture supernatant was recovered and subjected to analysis for lipoprotein in the culture supernatant described below.

PXB-cells [2] = assay: Total neutral fat of lipoproteins in culture supernatant of PXB-cells cultured with or without DMSO; type: cell-based, human; settings: 2% DMSO, PXB-cells cultured 5 days
Experimental: The following day of seeding, medium A was removed. Instead, 500 μL of medium B (DMSO (+)) or medium C (DMSO (−)) was added. The plate was gently placed in an incubator (37° C., 5% CO2) and the cells were cultured for 5 days. After completion of culture, an image of the cells was taken by a photomicrographic camera. Then, the culture supernatant was recovered and subjected to analysis for lipoprotein in the culture supernatant described below. Lipoproteins contained in the culture supernatants of PXB-cells, HepG2 cells and HuH7 cells were analyzed by using LipoSEARCH (registered trademark) method (Skylight Biotech, Inc.). After completion of the culture mentioned above, the medium used in the culture was removed and 500 μL of medium D for analysis was added. The culture plate was gently placed in an incubator (37° C., 5% CO2) and the cells were cultured for 2 days. Thereafter, the culture supernatant was recovered, lipoproteins contained in the culture supernatant (80 μL) were fractionated into 4 types of subgroups, CM, VLDL, LDL and HDL fractions, by gel filtration HPLC. Cholesterol and neutral fat (triglyceride) contained in individual fractions were quantified by online enzyme reactions. […]

PXB-cells [3] = assay: Human albumin content in culture supernatant of PXB-cells (immunoturbidimetric method), toxicity index; type: cell-based; settings: 2 days
PXB-cells [4] = assay: Screening test: total cholesterol and total neutral fat (triglyceride) in PXB-cells (Cholestest); type: cell-based, human; settings: lomitapide 1, 10, 100 μM, 2 days; PXB-cells pre-cultured 12 days in medium B (DMSO (+)); vs ethanol control
Experimental: Triglyceride in cells was measured by use of Cholestest (registered trademark) TG (Sekisui Medical Co., Ltd.) in accordance with the instruction by the manufacturer. More specifically, the cells were washed with PBS, and then, completely dewatered (stored at −80° C. until measurement). To each well containing the cells, 200 μL of TG enzyme solution (1) was added. A reaction was allowed to proceed while keeping the cells warm at 37° C. for 10 minutes (free glycerol was removed). Then, the cells were torn away by pipetting, transferred to a centrifuge tube and centrifuged at 10,000 rpm×10 minutes. Then, the supernatant (7.5 μL) was transferred to a 96-well microplate. […] The resultant reaction product was subjected to measurement of absorbance at 550 nm. The content of triglyceride was calculated based on HDL-C180A as the reference (triglyceride concentration of HDL-C180A was 52.26 mg/dL).
Intracellular cholesterol was measured by use of Cholestest (registered trademark) CHO (Sekisui Medical Co., Ltd.) in accordance with the instruction by the manufacturer. […] The resultant reaction product was subjected to measurement of absorbance at 550 nm. The content of cholesterol was calculated based on HDL-C180A as the standard ([…] concentration of HDL-C180A was 152.67 mg/dL). […]

PXB-cells [5] = assay: Screening test: total cholesterol and total neutral fat (triglyceride) in culture supernatant of PXB-cells (LipoSEARCH); type: cell-based, human; settings: lomitapide 1, 10, 100 μM, 2 days; PXB-cells pre-cultured 12 days in medium B (DMSO (+)); vs ethanol control
Experimental: Lipoproteins contained in the culture supernatants of PXB-cells, HepG2 cells and HuH7 cells were analyzed by using LipoSEARCH (registered trademark) method (Skylight Biotech, Inc.).
After completion of the culture mentioned above, the medium used in the culture was removed and 500 μL of medium D for analysis was added. The culture plate was gently placed in an incubator (37° C., 5% CO2) and the cells were cultured for 2 days. Thereafter, the culture supernatant was recovered, lipoproteins contained in the culture supernatant (80 μL) were fractionated into 4 types of subgroups, CM, VLDL, LDL and HDL fractions, by gel filtration HPLC. Cholesterol and neutral fat (triglyceride) contained in individual fractions were quantified by online enzyme reactions. […]
Each test substance was suspended with ethanol and added in a predetermined amount to a PXB-cell culture, gently placed in an incubator (37° C., 5% CO2) and cultured for 2 days. After completion of culture, the total cholesterol and total neutral fat (triglyceride) in culture supernatant and in cells were measured in accordance with the methods described in the sections “Analysis of lipoprotein in culture supernatant” and “Analysis of lipoprotein in cells”. […]

C[S+](C)[O-] [DMSO, dimethyl sulfoxide]
number of fat droplets, medium B (DMSO (+)) compared to medium C (DMSO (−)) (PXB-cells [1]): about double | secretion of total neutral fat (triglyceride) in lipoproteins, medium B (DMSO (+)) relative to medium C (DMSO (−)) (PXB-cells [2]): about 9 times

O=C(NC1CCN(CCCCC2(C(=O)NCC(F)(F)F)c3ccccc3-c3ccccc32)CC1)c1ccccc1-c1ccc(C(F)(F)F)cc1 [lomitapide]
content of human albumin in the culture supernatant (PXB-cells [3]; lomitapide 1, 10, 100 μM, PXB-cells in medium B (DMSO (+))): decreased depending on the addition amount | toxicity (based on human albumin content) (PXB-cells [3]; lomitapide, high amount (1-100 μM tested), PXB-cells): toxic | total cholesterol content in the cells (PXB-cells [4]): no significant decrease | total neutral fat (triglyceride) content in the cells (PXB-cells [4]): no significant decrease | total cholesterol content in the culture supernatants (PXB-cells [5]): significantly decreased | total neutral fat (triglyceride) content in the culture supernatants (PXB-cells [5]): significantly decreased

CCC(C)(C)C(=O)O[C@H]1C[C@@H](C)C=C2C=C[C@H](C)[C@H](CC[C@@H]3C[C@@H](O)CC(=O)O3)[C@H]21 [simvastatin]
human albumin content in the culture supernatant (PXB-cells [3]; simvastatin 0.1, 1, 10 μM, PXB-cells in medium B (DMSO (+))): no significant decrease
